Laboratory results: patent publication US20230090391A1, “OMECAMTIV MECARBIL TABLET” (Amgen Inc., priority 2020, published 2023)
Counter-ions that a name gives are not always drawn.

Experiments:
[1] = Phase 1 crossover study: safety and tolerability of single oral doses of OM; format: in vivo, healthy adult subjects; settings: all 5 treatments
Description: The secondary objective of the study was to evaluate the safety and tolerability of a single 6 mg dose (administered as mini-tablets) or 25 mg dose (administered as a MR tablet or mini-tablets) of OM administered to healthy adult subjects.
The study was a Phase 1, single-center, open-label, randomized, 5-period, 4-sequence crossover study to investigate the pharmacokinetics, safety, and tolerability of the disclosed tablet formulations and a conventional MR tablet formulation of OM in healthy male and healthy female adult subjects. Subjects were screened to assess eligibility to enter the study within 21 days prior to the first dose administration. Subjects were admitted into the clinical research unit on Day 1 and confined to the clinical research unit for Periods 1 through 5 until discharged at end of study. Following randomization into 1 of 4 treatment sequences, subjects received 1 of the 5 treatments on Day 1 of each treatment period with all subjects receiving all 5 treatments. Blood was collected at predetermined timepoints to characterize plasma concentrations of OM. Safety and tolerability monitoring was performed throughout the study.
Up to twenty subjects (5 per sequence) were enrolled in the study. Data for all 20 subjects entered into the study were included in the PK and safety analyses. Healthy male or female subjects were selected according to inclusion and exclusion criteria. The subjects were assigned to one of the five following Treatment Groups (A-E): • Treatment Group A: 25 mg (1×25 mg) OM MR tablet; • Treatment Group B: 25 mg (25×1 mg) OM slow-release mini-tablets; • Treatment Group C: 25 mg (25×1 mg) OM fast-release mini-tablets; • Treatment Group D: 6 mg (6×1 mg) OM slow-release mini-tablets; and • Treatment Group E: 6 mg (6×1 mg) OM fast-release mini-tablets.
The safety analysis included monitoring adverse events, clinical laboratory evaluations, 12 lead electrocardiograms (ECGs), and vital signs during the study.
All safety data were listed. The treatment-emergent adverse events were summarized by treatment, severity, and relationship to the study drug. The frequency of treatment emergent adverse events was summarized by treatment, system organ class and preferred term of the Medical Dictionary for Regulatory Activities. No inferential statistical analyses were planned.

[2] = 19F solid state NMR of granulation and IR mini-tablet cores (physical form); format: physicochemical; settings: 19F SSNMR of IR granulation and IR mini-tablet cores
Source text: Cores 1A-1C, as well as the corresponding granulates, were subjected to analytical characterizations. The results are depicted in FIGS. 3 and 4.
FIGS. 3 and 4 depict the ^19F solid state NMR (SSNMR) spectra of the immediate-release granulation and immediate-release mini-tablet cores.

SMILES | Clinical laboratory evaluations, vital signs, 12-lead ECGs ([1]; 20 subjects) | Number of subjects reporting treatment-emergent adverse events considered related to OM ([1]; 20 subjects) [subjects] | Serious adverse events ([1]; 20 subjects) | Treatment-emergent adverse events leading to discontinuation ([1]; 20 subjects) | Severity of adverse events ([1]; 20 subjects, resolved by the end of the study) | Number of treatment-emergent adverse events considered related to OM ([1]; myalgia, dizziness, costochondritis, muscle twitching, non-cardiac chest pain) | Stability and physical form during manufacturing [2]
COC(=O)N1CCN(Cc2cccc(NC(=O)Nc3ccc(C)nc3)c2F)CC1 [OM, Omecamtiv mecarbil] | no clinically significant findings | 7 | no serious adverse events | no treatment-emergent adverse events led to premature discontinuation | mild | Eight | –
COC(=O)N1CCN(Cc2cccc(NC(=O)Nc3ccc(C)nc3)c2F)CC1 [omecamtiv mecarbil dihydrochloride monohydrate] | – | – | – | – | – | – | stable during manufacturing and exhibits no change in physical form
